Laboratory results: ChEMBL document CHEMBL4334470, “Small molecule modulators targeting protein kinase CK1 and CK2” (Eur J Med Chem, 2019)

What was measured:
[1] = target: T1, Casein kinase II subunit alpha (Homo sapiens, UniProt P68400); assay: Inhibition of CK2alpha (unknown origin)
[2] = target: T1, Casein kinase II subunit alpha; assay: Inhibition of CK2alpha (unknown origin) using RRRADDSDDDDD as substrate in presence of [gamma33P]-ATP by autoradiography
[3] = target: Casein kinase I delta/epsilon (Homo sapiens, UniProt P48730+P49674); assay: Inhibition of CK1delta/CK1epsilon (unknown origin); assay type: protein-complex assay
[4] = target: Casein kinase I isoform alpha (Homo sapiens, UniProt P48729); assay: Inhibition of CK1alpha (unknown origin)
Casein kinase I = assay: Inhibition of CK1 (unknown origin); assay type: protein assay, Homo sapiens

T1 sequence (P68400 whole entry): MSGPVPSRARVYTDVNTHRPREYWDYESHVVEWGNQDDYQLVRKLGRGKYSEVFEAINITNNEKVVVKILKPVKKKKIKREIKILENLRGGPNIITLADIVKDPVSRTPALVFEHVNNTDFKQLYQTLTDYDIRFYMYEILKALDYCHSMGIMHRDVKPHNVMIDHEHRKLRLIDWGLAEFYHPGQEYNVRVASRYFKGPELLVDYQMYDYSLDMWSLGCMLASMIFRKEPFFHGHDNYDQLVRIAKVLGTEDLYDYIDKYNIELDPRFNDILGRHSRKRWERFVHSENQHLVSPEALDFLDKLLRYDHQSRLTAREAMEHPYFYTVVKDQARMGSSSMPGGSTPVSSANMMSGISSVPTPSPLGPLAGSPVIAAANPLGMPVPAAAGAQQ
Casein kinase I isoform alpha, sequence (P48729 whole entry, canonical isoform): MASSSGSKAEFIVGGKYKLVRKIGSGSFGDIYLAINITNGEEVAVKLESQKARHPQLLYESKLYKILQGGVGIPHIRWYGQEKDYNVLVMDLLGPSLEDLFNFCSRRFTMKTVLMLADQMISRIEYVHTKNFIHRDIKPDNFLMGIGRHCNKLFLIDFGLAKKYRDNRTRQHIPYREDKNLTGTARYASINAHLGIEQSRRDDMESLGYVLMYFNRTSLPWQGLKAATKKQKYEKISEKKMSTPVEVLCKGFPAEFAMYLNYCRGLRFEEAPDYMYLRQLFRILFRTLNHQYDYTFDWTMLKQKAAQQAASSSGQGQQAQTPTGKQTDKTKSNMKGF
Casein kinase I delta/epsilon, sequence (P48730 whole entry, canonical isoform): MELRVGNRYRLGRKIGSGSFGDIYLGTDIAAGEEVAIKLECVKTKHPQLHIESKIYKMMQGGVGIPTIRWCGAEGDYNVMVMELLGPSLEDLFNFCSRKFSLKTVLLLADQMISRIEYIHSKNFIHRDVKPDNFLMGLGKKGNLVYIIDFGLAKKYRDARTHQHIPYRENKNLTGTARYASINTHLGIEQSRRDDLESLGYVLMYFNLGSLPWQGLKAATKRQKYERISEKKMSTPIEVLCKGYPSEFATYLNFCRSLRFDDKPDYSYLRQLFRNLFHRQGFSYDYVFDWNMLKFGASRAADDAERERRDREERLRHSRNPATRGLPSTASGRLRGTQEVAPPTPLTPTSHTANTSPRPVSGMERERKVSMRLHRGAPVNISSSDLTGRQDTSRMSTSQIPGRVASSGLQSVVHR
Casein kinase I delta/epsilon, sequence (P49674 whole entry, canonical isoform): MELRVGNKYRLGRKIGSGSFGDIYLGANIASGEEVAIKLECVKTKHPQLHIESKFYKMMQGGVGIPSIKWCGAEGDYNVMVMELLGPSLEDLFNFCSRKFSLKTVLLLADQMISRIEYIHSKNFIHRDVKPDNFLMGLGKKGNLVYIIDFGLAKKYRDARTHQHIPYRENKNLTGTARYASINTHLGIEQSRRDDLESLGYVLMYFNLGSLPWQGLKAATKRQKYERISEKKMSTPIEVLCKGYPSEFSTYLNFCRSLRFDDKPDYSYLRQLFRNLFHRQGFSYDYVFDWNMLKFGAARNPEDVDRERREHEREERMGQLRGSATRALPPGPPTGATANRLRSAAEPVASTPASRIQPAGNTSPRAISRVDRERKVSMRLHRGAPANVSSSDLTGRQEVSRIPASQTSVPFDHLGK

Ki [1]	Structure (SMILES)	other results
780 nM	O=c1c2c(O)cccc2oc2c([N+](=O)[O-])ccc(O)c12	–
–	O=C(O)/C=C/c1cc(Br)c(Br)c(Br)c1Br	Ki [2]: 77 nM
60 nM	Cc1c(Br)c(=O)oc2c(Br)c(O)ccc12	–
–	COc1cc(OC)c(/C=C2\C(=O)Nc3ccccc32)c(OC)c1	IC50 [3]: 1000 nM; IC50 [4]: 16000 nM
220 nM	CCCCCCCCCCCC1=C(O)C(=O)C2=C(OC(N)=C(C#N)C2[N+](=O)[O-])C1=O (stereo unspecified)	–
7 nM	O=c1oc2c(Br)c(O)ccc2c2ccc(O)cc12	–
–	NCCNS(=O)(=O)c1ccc(Cl)c2ccncc12	IC50 (Casein kinase I): 9500 nM
800 nM	O=C1c2c(O)cccc2C(=O)c2c([N+](=O)[O-])ccc(O)c21	–
20 nM	O=c1oc2c(O)c(O)cc3c(=O)oc4c(O)c(O)cc1c4c23 [ELLAGIC ACID]	–
350 nM	O=c1c(O)c(-c2ccc(O)c(O)c2)oc2cc(O)ccc12 [FISETIN]	–
